Source: paper PMC5218480 (PLoS ONE, 2017)

System: MV-4-11 cells
Experiment: Gene expression microarray analysis (Affymetrix PrimeView) and GSEA
Format: cell-based, human
Parameters: RFU PODN (11730768_x_at) / Fold change /veh PODN (11730768_x_at) / RFU LINC00158 (11744669_a_at) / Fold change /veh LINC00158 (11744669_a_at) / RFU DUSP10 (11751237_a_at) / Fold change /veh DUSP10 (11751237_a_at) / RFU ID3 (11757404_x_at) / Fold change /veh ID3 (11757404_x_at) / RFU PLEKHG5 (11737974_s_at) / Fold change /veh PLEKHG5 (11737974_s_at) / RFU LRRC4B (11730491_at) / Fold change /veh LRRC4B (11730491_at) / RFU GIMAP4 (11747438_a_at) / Fold change /veh GIMAP4 (11747438_a_at) / RFU KRT8 (11758183_x_at) / Fold change /veh KRT8 (11758183_x_at) / RFU CNN1 (11734310_a_at) / Fold change /veh CNN1 (11734310_a_at) / RFU VPS37D (11726825_at) / Fold change /veh VPS37D (11726825_at) / RFU C10orf10 (11716522_x_at) / Fold change /veh C10orf10 (11716522_x_at) / RFU KIR2DL2 /// KIR2DL4 /// KIR2DL5A /// KIR2DL5B /// KIR2DS1 /// KIR2DS2 /// KIR2DS3 /// KIR2DS4 /// KIR3DL3 /// KIR3DL3 /// KIR3DS1 (11738374_at) / Fold change /veh KIR2DL2 /// KIR2DL4 /// KIR2DL5A /// KIR2DL5B /// KIR2DS1 /// KIR2DS2 /// KIR2DS3 /// KIR2DS4 /// KIR3DL3 /// KIR3DL3 /// KIR3DS1 (11738374_at) / RFU C1QL1 (11718748_at) / Fold change /veh C1QL1 (11718748_at) / RFU TMPRSS4 (11747572_a_at) / Fold change /veh TMPRSS4 (11747572_a_at) / RFU HAMP (11756126_x_at) / Fold change /veh HAMP (11756126_x_at) / RFU RNFT2 (11725882_a_at) / Fold change /veh RNFT2 (11725882_a_at) / RFU NR4A2 (11747474_a_at) / Fold change /veh NR4A2 (11747474_a_at) / RFU ABCC12 (11746883_a_at) / Fold change /veh ABCC12 (11746883_a_at) / RFU TMEM136 (11760407_x_at) / Fold change /veh TMEM136 (11760407_x_at) / RFU CLDN22 /// WWC2 (11732394_at) / Fold change /veh CLDN22 /// WWC2 (11732394_at) / RFU HLA-DPB1 (11760878_x_at) / Fold change /veh HLA-DPB1 (11760878_x_at) / RFU SPINT1 (11716480_a_at) / Fold change /veh SPINT1 (11716480_a_at) / RFU GAP43 (11754022_s_at) / Fold change /veh GAP43 (11754022_s_at) / RFU A4GNT (11735810_at) / Fold change /veh A4GNT (11735810_at) / RFU PRB3 (11715151_x_at) / Fold change /veh PRB3 (11715151_x_at) / RFU TUBB4B (11761932_at) / Fold change /veh TUBB4B (11761932_at) / RFU CAPN14 (11732068_a_at) / Fold change /veh CAPN14 (11732068_a_at) / RFU TMCC2 (11721928_a_at) / Fold change /veh TMCC2 (11721928_a_at) / RFU IRGQ (11745062_a_at) / Fold change /veh IRGQ (11745062_a_at) / RFU FAM174B (11720279_a_at) / Fold change /veh FAM174B (11720279_a_at) / RFU TMPRSS4 (11748680_a_at) / Fold change /veh TMPRSS4 (11748680_a_at) / RFU FAM212B (11763350_a_at) / Fold change /veh FAM212B (11763350_a_at) / RFU PLEKHG5 (11743358_a_at) / Fold change /veh PLEKHG5 (11743358_a_at) / RFU ZSCAN30 (11745921_a_at) / Fold change /veh ZSCAN30 (11745921_a_at) / RFU CMKLR1 (11741424_a_at) / Fold change /veh CMKLR1 (11741424_a_at) / RFU LOC101060620 /// MAPK8IP1 (11723275_at) / Fold change /veh LOC101060620 /// MAPK8IP1 (11723275_at) / RFU SPTSSB (11747773_x_at) / Fold change /veh SPTSSB (11747773_x_at) / RFU PRSS12 (11739890_at) / Fold change /veh PRSS12 (11739890_at) / RFU BIN1 (11741810_x_at) / Fold change /veh BIN1 (11741810_x_at) / RFU WNT11 (11732464_a_at) / Fold change /veh WNT11 (11732464_a_at) / RFU C10orf10 (11716521_a_at) / Fold change /veh C10orf10 (11716521_a_at) / RFU C5orf56 (11738089_at) / Fold change /veh C5orf56 (11738089_at) / RFU CYB561 (11721691_x_at) / Fold change /veh CYB561 (11721691_x_at) / RFU ANKRD19P (11752326_a_at) / Fold change /veh ANKRD19P (11752326_a_at) / RFU OR2T12 /// OR2T33 /// OR2T8 (11738714_s_at) / Fold change /veh OR2T12 /// OR2T33 /// OR2T8 (11738714_s_at) / RFU VCAN (11748164_a_at) / Fold change /veh VCAN (11748164_a_at) / RFU JSRP1 (11732532_at) / Fold change /veh JSRP1 (11732532_at) / RFU KRTAP10-11 (11738290_x_at) / Fold change /veh KRTAP10-11 (11738290_x_at) / RFU MYO3A (11730013_a_at) / Fold change /veh MYO3A (11730013_a_at) / RFU EBF3 (11725865_a_at) / Fold change /veh EBF3 (11725865_a_at) / RFU CAMK2N1 (11719241_x_at) / Fold change /veh CAMK2N1 (11719241_x_at) / RFU C5orf56 (11738088_a_at) / Fold change /veh C5orf56 (11738088_a_at) / RFU OLFML3 (11715873_a_at) / Fold change /veh OLFML3 (11715873_a_at) / RFU LOC100653217 /// NTM (11731650_a_at) / Fold change /veh LOC100653217 /// NTM (11731650_a_at) / RFU MAPK11 (11762145_a_at) / Fold change /veh MAPK11 (11762145_a_at) / RFU FIZ1 (11724087_x_at) / Fold change /veh FIZ1 (11724087_x_at) / RFU OASL (11726364_x_at) / Fold change /veh OASL (11726364_x_at) / RFU SOX15 (11748057_x_at) / Fold change /veh SOX15 (11748057_x_at) / RFU CD79A (11719716_a_at) / Fold change /veh CD79A (11719716_a_at) / RFU HIST1H1D (11736915_at) / Fold change /veh HIST1H1D (11736915_at) / RFU CASKIN2 (11723855_a_at) / Fold change /veh CASKIN2 (11723855_a_at) / RFU LOC730098 (11760151_x_at) / Fold change /veh LOC730098 (11760151_x_at) / RFU OR4N2 (11742367_at) / Fold change /veh OR4N2 (11742367_at) / RFU PRRT2 (11749266_a_at) / Fold change /veh PRRT2 (11749266_a_at) / RFU SNX32 (11753110_a_at) / Fold change /veh SNX32 (11753110_a_at) / RFU CDHR5 (11726645_a_at) / Fold change /veh CDHR5 (11726645_a_at) / RFU RCAN1 (11760418_a_at) / Fold change /veh RCAN1 (11760418_a_at) / RFU FAM167A (11723789_a_at) / Fold change /veh FAM167A (11723789_a_at) / RFU FAM26E (11764081_at) / Fold change /veh FAM26E (11764081_at) / RFU ISYNA1 (11749810_s_at) / Fold change /veh ISYNA1 (11749810_s_at) / RFU ACY1 (11761880_at) / Fold change /veh ACY1 (11761880_at) / RFU 11764098_at / Fold change /veh 11764098_at / RFU SAMD14 (11745864_x_at) / Fold change /veh SAMD14 (11745864_x_at) / RFU NPB (11741838_a_at) / Fold change /veh NPB (11741838_a_at) / RFU TMPRSS6 (11731388_a_at) / Fold change /veh TMPRSS6 (11731388_a_at) / RFU KRTAP10-2 (11738614_at) / Fold change /veh KRTAP10-2 (11738614_at) / RFU ARHGAP8 /// PRR5-ARHGAP8 (11727945_x_at) / Fold change /veh ARHGAP8 /// PRR5-ARHGAP8 (11727945_x_at) / RFU KRTAP5-7 /// NADSYN1 (11734609_at) / Fold change /veh KRTAP5-7 /// NADSYN1 (11734609_at) / RFU RASL12 (11751679_a_at) / Fold change /veh RASL12 (11751679_a_at) / RFU CDKN2B (11736163_a_at) / Fold change /veh CDKN2B (11736163_a_at) / RFU PRF1 (11729649_at) / Fold change /veh PRF1 (11729649_at) / RFU, ZNF638 /// ZNF638-IT1 / Fold change vs veh, ZNF638 /// ZNF638-IT1 / RFU, PANK3 / Fold change vs veh, PANK3 / RFU, SH3YL1 / Fold change vs veh, SH3YL1 / RFU, ZEB2 / Fold change vs veh, ZEB2 / RFU, NRIP1 / Fold change vs veh, NRIP1 / RFU, PTTG1IP / Fold change vs veh, PTTG1IP / RFU, CAPN2 / Fold change vs veh, CAPN2 / RFU, MED14 / Fold change vs veh, MED14 / RFU, SNORA58 / Fold change vs veh, SNORA58 / RFU, C1orf63 / Fold change vs veh, C1orf63 / RFU, LRRFIP1 / Fold change vs veh, LRRFIP1 / RFU, NDUFAF7 / Fold change vs veh, NDUFAF7 / RFU, SLC12A2 / Fold change vs veh, SLC12A2 / RFU, IBTK / Fold change vs veh, IBTK / RFU, ESF1 / Fold change vs veh, ESF1 / Fold change vs veh, TMEM50B / RFU, TAOK1 / Fold change vs veh, TAOK1 / RFU, ACBD3 / Fold change vs veh, ACBD3 / RFU, TMA16 / Fold change vs veh, TMA16 / RFU, RWDD3 / Fold change vs veh, RWDD3 / RFU, BCAT1 / Fold change vs veh, BCAT1 / RFU, EDEM3 / Fold change vs veh, EDEM3 / RFU, TMEM33 / Fold change vs veh, TMEM33 / RFU, WDR75 / Fold change vs veh, WDR75 / RFU, AHCTF1 / Fold change vs veh, AHCTF1 / RFU, TFRC / Fold change vs veh, TFRC / RFU, ZDHHC17 / Fold change vs veh, ZDHHC17 / RFU, NOM1 / Fold change vs veh, NOM1 / RFU, ARL8B / Fold change vs veh, ARL8B / RFU, ZBTB11 / Fold change vs veh, ZBTB11 / RFU, TAMM41 / Fold change vs veh, TAMM41 / RFU, KIAA1704 /// LOC100996395 / Fold change vs veh, KIAA1704 /// LOC100996395 / RFU, ING1 / Fold change vs veh, ING1 / RFU, TRMT61B / Fold change vs veh, TRMT61B / RFU, FUBP3 / Fold change vs veh, FUBP3 / RFU, TP53 / Fold change vs veh, TP53 / RFU, TNKS2 / Fold change vs veh, TNKS2 / RFU, ZFP14 / Fold change vs veh, ZFP14 / RFU, ACTR2 / Fold change vs veh, ACTR2 / RFU, PPP3R1 / Fold change vs veh, PPP3R1 / RFU, PIK3R1 / Fold change vs veh, PIK3R1 / RFU, HNRNPA1 / Fold change vs veh, HNRNPA1 / RFU, RNF170 / Fold change vs veh, RNF170 / RFU, ZNF28 / Fold change vs veh, ZNF28 / RFU, RNGTT / Fold change vs veh, RNGTT / RFU, OGT / Fold change vs veh, OGT / RFU, BRD1 / Fold change vs veh, BRD1 / RFU, MARS / Fold change vs veh, MARS / RFU, ZNF655 / Fold change vs veh, ZNF655 / RFU, FAHD1 / Fold change vs veh, FAHD1 / RFU, BDP1 / Fold change vs veh, BDP1 / RFU, LRRCC1 / Fold change vs veh, LRRCC1 / RFU, ARID1A / Fold change vs veh, ARID1A / RFU, ZNF146 / Fold change vs veh, ZNF146 / RFU, ZNF330 / Fold change vs veh, ZNF330 / RFU, GPN3 / Fold change vs veh, GPN3 / RFU, C9orf123 / Fold change vs veh, C9orf123 / RFU, N4BP2L2 / Fold change vs veh, N4BP2L2 / RFU, ARFIP1 / Fold change vs veh, ARFIP1 / RFU, FAM179B / Fold change vs veh, FAM179B / RFU, BCL10 / Fold change vs veh, BCL10 / RFU, UHRF1BP1L / Fold change vs veh, UHRF1BP1L / RFU, BET1 / Fold change vs veh, BET1 / RFU, CNOT2 / Fold change vs veh, CNOT2 / RFU, ZNF268 / Fold change vs veh, ZNF268 / Fold change vs veh, ZNF507 / RFU, DGCR2 / Fold change vs veh, DGCR2 / RFU, WDSUB1 / Fold change vs veh, WDSUB1 / Fold change vs veh, HSP90B1 /// MIR3652 / RFU, ADSS / Fold change vs veh, ADSS / RFU, GK / Fold change vs veh, GK / RFU, ZNF148 / Fold change vs veh, ZNF148 / RFU, TAF9 / Fold change vs veh, TAF9 / RFU, SLC1A5 / Fold change vs veh, SLC1A5 / RFU, SLMO2 / Fold change vs veh, SLMO2 / RFU, ABCC4 / Fold change vs veh, ABCC4 / RFU, LOC101060439 /// RAP1B / Fold change vs veh, LOC101060439 /// RAP1B / RFU, RFX7 / Fold change vs veh, RFX7 / RFU, GTPBP10 / Fold change vs veh, GTPBP10 / RFU, CNEP1R1 / Fold change vs veh, CNEP1R1 / RFU, BIVM-ERCC5 /// ERCC5 / Fold change vs veh, BIVM-ERCC5 /// ERCC5 / RFU, ILF3 / Fold change vs veh, ILF3 / RFU 11762660_at / Fold change /veh 11762660_at / RFU VCAN (11757783_s_at) / Fold change /veh VCAN (11757783_s_at) / RFU DDX43 (11728927_at) / Fold change /veh DDX43 (11728927_at) / RFU KRT8 (11758188_x_at) / Fold change /veh KRT8 (11758188_x_at) / RFU NKD1 (11759106_at) / Fold change /veh NKD1 (11759106_at) / RFU SRD5A1 (11742802_a_at) / Fold change /veh SRD5A1 (11742802_a_at) / RFU TPSAB1 /// TPSB2 (11721975_s_at) / Fold change /veh TPSAB1 /// TPSB2 (11721975_s_at) / RFU GSTM3 (11746129_a_at) / Fold change /veh GSTM3 (11746129_a_at) / RFU IL23R (11737362_x_at) / Fold change /veh IL23R (11737362_x_at) / RFU TMEM51 (11727254_a_at) / Fold change /veh TMEM51 (11727254_a_at) / RFU PIWIL2 (11732686_x_at) / Fold change /veh PIWIL2 (11732686_x_at) / RFU ORM1 (11744905_x_at) / Fold change /veh ORM1 (11744905_x_at) / RFU CCDC152 (11743942_at) / Fold change /veh CCDC152 (11743942_at) / RFU ECM1 (11717891_a_at) / Fold change /veh ECM1 (11717891_a_at) / RFU IL23R (11748794_a_at) / Fold change /veh IL23R (11748794_a_at) / RFU TNFAIP8L3 (11732012_x_at) / Fold change /veh TNFAIP8L3 (11732012_x_at) / RFU MBOAT4 (11741988_at) / Fold change /veh MBOAT4 (11741988_at) / RFU 11764193_at / Fold change /veh 11764193_at / RFU TMEM53 (11763286_at) / Fold change /veh TMEM53 (11763286_at) / RFU MAGEB2 (11727129_at) / Fold change /veh MAGEB2 (11727129_at) / RFU TMEM200A (11744735_a_at) / Fold change /veh TMEM200A (11744735_a_at) / RFU CCDC152 (11751479_a_at) / Fold change /veh CCDC152 (11751479_a_at) / RFU FAM211A (11726209_a_at) / Fold change /veh FAM211A (11726209_a_at) / RFU RGS16 (11746705_a_at) / Fold change /veh RGS16 (11746705_a_at) / RFU VCAN (11755009_s_at) / Fold change /veh VCAN (11755009_s_at) / RFU RHOB (11743442_s_at) / Fold change /veh RHOB (11743442_s_at) / RFU RGS16 (11720943_a_at) / Fold change /veh RGS16 (11720943_a_at) / RFU RGS16 (11720944_at) / Fold change /veh RGS16 (11720944_at) / RFU, VPS4B / Fold change vs veh, VPS4B / RFU, CREB1 / Fold change vs veh, CREB1 / RFU, DNAJC13 / Fold change vs veh, DNAJC13 / RFU, GNAQ / Fold change vs veh, GNAQ / RFU, CDK5R1 / Fold change vs veh, CDK5R1 / RFU, ZRANB3 / Fold change vs veh, ZRANB3 / RFU, CUL4A / Fold change vs veh, CUL4A / RFU, CCNY / Fold change vs veh, CCNY / RFU, UFL1 / Fold change vs veh, UFL1 / RFU, COG3 / Fold change vs veh, COG3 / RFU, DIAPH2 / Fold change vs veh, DIAPH2 / RFU, SKA2 / Fold change vs veh, SKA2 / RFU, AFF3 / Fold change vs veh, AFF3 / RFU, LMF1 / Fold change vs veh, LMF1 / RFU, IPO11 / Fold change vs veh, IPO11 / RFU, DFFB / Fold change vs veh, DFFB / RFU, FOXP1 / Fold change vs veh, FOXP1 / RFU, CARD8 / Fold change vs veh, CARD8 / RFU, STRN3 / Fold change vs veh, STRN3 / RFU, ADK / Fold change vs veh, ADK / RFU, RASSF2 / Fold change vs veh, RASSF2 / RFU, WIPF1 / Fold change vs veh, WIPF1 / RFU, LARP1B / Fold change vs veh, LARP1B / RFU, RASA1 / Fold change vs veh, RASA1 / RFU, RB1 / Fold change vs veh, RB1 / RFU, PPFIA1 / Fold change vs veh, PPFIA1 / RFU, MAT2A / Fold change vs veh, MAT2A / RFU, CCT5 / Fold change vs veh, CCT5 / RFU, WDR92 / Fold change vs veh, WDR92 / RFU, CUX1 / Fold change vs veh, CUX1 / RFU, TTC7A / Fold change vs veh, TTC7A / RFU, TMEM135 / Fold change vs veh, TMEM135 / RFU, DEPTOR / Fold change vs veh, DEPTOR / RFU, CPM / Fold change vs veh, CPM / RFU, DNAJB6 / Fold change vs veh, DNAJB6 / RFU, CACNA2D3 / Fold change vs veh, CACNA2D3 / RFU, DTX4 / Fold change vs veh, DTX4 / RFU, TFCP2 / Fold change vs veh, TFCP2 / RFU, GMCL1 /// GMCL1P1 / Fold change vs veh, GMCL1 /// GMCL1P1 / RFU, AEBP2 / Fold change vs veh, AEBP2 / RFU, SNHG1 /// SNORD22 /// SNORD25 /// SNORD26 /// SNORD27 /// SNORD28 /// SNORD29 /// SNORD31 / Fold change vs veh, SNHG1 /// SNORD22 /// SNORD25 /// SNORD26 /// SNORD27 /// SNORD28 /// SNORD29 /// SNORD31 / Fold change (Aza/veh), C12orf56 (ProbeSet 11735607_a_at) / Fold change (ACY-1035/veh), C12orf56 (ProbeSet 11735607_a_at) / Fold change (Aza/veh), FGFR1OP (ProbeSet 11751329_s_at) / Fold change (ACY-1035/veh), FGFR1OP (ProbeSet 11751329_s_at) / Fold change (Aza/veh), VPS36 (ProbeSet 11739960_a_at) / Fold change (ACY-1035/veh), VPS36 (ProbeSet 11739960_a_at) / RFU SYPL1 (11715823_x_at) / Fold change /veh SYPL1 (11715823_x_at) / RFU IGFBP7 (11715501_s_at) / Fold change /veh IGFBP7 (11715501_s_at) / RFU REEP3 (11722064_at) / Fold change /veh REEP3 (11722064_at) / RFU IGLL1 (11728026_x_at) / Fold change /veh IGLL1 (11728026_x_at): dose or concentration left out as unconfirmed
Details: ProbeSet 11726703_a_at; LIST B

Nc1ncn([C@@H]2O[C@H](CO)[C@@H](O)[C@H]2O)c(=O)n1 [azacitidine]
RFU, BCL10: 71.45 RFU
